Test results: patent US11040981B2, “Pyrrolotriazine compounds and methods of inhibiting TAM kinases” (Syros Pharmaceuticals, Inc., priority 2017, dated 2021)

What was measured:
[1] = molecular target: T1, TYRO3 (Homo sapiens, UniProt Q06418); test: TR-FRET kinase activity assay, TYRO3; type: biochemical; conditions: ATP at Km, 60 minutes
T1 sequence (Q06418 41-890): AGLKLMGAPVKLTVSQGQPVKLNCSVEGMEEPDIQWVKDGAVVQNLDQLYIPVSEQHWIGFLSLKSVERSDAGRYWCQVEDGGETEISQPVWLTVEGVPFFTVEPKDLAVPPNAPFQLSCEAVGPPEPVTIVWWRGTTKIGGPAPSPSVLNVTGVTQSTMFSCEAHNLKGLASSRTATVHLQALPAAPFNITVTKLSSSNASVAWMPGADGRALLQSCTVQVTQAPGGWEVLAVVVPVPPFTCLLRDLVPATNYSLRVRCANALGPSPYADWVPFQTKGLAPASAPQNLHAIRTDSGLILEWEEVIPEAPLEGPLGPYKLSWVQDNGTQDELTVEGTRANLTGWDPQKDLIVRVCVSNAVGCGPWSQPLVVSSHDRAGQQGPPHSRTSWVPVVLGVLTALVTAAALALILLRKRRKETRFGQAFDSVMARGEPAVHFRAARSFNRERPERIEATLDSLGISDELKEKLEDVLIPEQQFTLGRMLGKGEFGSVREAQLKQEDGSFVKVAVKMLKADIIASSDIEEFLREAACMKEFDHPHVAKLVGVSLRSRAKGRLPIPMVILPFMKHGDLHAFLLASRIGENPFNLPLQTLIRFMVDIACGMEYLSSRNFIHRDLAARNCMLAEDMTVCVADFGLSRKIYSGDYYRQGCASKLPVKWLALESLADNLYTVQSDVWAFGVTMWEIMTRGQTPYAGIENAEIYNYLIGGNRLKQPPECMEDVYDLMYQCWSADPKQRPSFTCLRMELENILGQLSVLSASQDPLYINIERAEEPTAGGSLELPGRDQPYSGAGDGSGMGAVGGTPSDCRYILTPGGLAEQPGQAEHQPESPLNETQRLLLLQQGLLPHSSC
Procedure, shortened: (§1)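 Recombinant human kinases, fluorescent peptide substrate, ATP at Km; 1 h RT, pH 7.5. EDTA-quenched, Eu antibody added, TR-FRET read; IC50 determined.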

[2] = molecular target: T2, MERTK (Homo sapiens, UniProt Q12866); test: TR-FRET kinase activity assay, MERTK; type: biochemical; conditions: for IC50: TR-FRET activity assay, ATP at Km, 60 minutes, read-out: Mer IC50
T2 sequence (Q12866 21-999): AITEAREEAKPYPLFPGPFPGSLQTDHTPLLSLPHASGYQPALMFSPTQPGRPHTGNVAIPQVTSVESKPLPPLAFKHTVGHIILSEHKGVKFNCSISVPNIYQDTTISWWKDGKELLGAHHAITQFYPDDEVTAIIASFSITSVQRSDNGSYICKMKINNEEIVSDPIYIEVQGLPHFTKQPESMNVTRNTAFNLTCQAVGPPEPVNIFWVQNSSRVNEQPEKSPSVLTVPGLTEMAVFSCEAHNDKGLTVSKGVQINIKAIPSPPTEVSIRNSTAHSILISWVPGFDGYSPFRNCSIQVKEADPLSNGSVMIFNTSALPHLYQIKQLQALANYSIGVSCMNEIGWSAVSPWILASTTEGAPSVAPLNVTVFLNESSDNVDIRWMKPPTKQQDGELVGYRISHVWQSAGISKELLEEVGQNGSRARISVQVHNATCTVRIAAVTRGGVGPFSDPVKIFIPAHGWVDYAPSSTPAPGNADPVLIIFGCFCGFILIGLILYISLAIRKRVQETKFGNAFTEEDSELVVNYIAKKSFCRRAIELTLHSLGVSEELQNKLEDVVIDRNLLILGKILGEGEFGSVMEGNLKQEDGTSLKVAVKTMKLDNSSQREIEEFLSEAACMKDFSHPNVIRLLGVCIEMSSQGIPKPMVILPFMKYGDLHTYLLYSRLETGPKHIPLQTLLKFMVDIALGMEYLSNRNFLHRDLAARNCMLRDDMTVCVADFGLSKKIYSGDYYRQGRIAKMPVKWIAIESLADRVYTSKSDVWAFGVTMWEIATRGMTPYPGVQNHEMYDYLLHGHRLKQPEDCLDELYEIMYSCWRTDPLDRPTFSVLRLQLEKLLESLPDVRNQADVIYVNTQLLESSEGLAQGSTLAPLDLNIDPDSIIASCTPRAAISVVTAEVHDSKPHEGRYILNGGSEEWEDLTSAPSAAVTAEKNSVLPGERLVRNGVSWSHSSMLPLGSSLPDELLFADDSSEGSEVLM
Procedure, shortened: as §1

[3] = ratio calculated as FLT3 IC50/Mer IC50
[4] = ratio of Mer to FLT3: FLT3 IC50/Mer IC50

IC50 [1] [nM] | IC50 [2] [nM] | FLT3/Mer ratio (FLT3 IC50/Mer IC50) [2, 3] | Structure (SMILES) | FLT3/Mer ratio (FLT3 IC50/Mer IC50) [2, 4]
≤ 100 | ≤ 100 | +++ (“+++” represents a ratio of >100) | C[C@@H](COC(F)F)Nc1ncc2c(-c3cnn(C(C)(C)C(=O)N4CC5(COC5)C4)c3)cc([C@H]3CC[C@H](O)CC3)n2n1 [Compound 613] | –
≤ 100 | ≤ 100 | +++ (“+++” represents a ratio of >100) | CCC1(O)CCC(c2cc(-c3cnn(C4COC4)c3)c3cnc(NC(C)COC)nn23)CC1 (stereo not drawn) [Compound 615] | –
≤ 100 | ≤ 100 | – | COC[C@H](C)Nc1ncc2c(-c3cnn(C4CCOCC4)c3)cc([C@H]3CC[C@H](O)CC3)n2n1 [Compound 151] | +++ (“+++” represents a ratio of >100)
≤ 100 | ≤ 100 | +++ (“+++” represents a ratio of >100) | COC[C@H](C)Nc1ncc2c(-c3ccnc(C(C)(C)O)c3)cc([C@H]3CC[C@H](O)CC3)n2n1 [Compound 619] | –
≤ 100 | ≤ 100 | – | COCC(C)Nc1ncc2c(-c3cccc(C(C)N4CCCC4)c3)cc(C3CCC(O)CC3)n2n1 (stereo not drawn) [Compound 158] | +++ (“+++” represents a ratio of >100)
100 to 1000 | ≤ 100 | – | COC[C@H](C)Nc1ncc2c(N3CCCC3=O)cc([C@H]3CC[C@H](O)CC3)n2n1 [Compound 177] | +++ (“+++” represents a ratio of >100)
≤ 100 | ≤ 100 | +++ (“+++” represents a ratio of >100) | [2H]C([2H])([2H])OCC(C)Nc1ncc2c(-c3ccnc(N4CCOCC4)c3)cc(C3CCC(O)CC3)n2n1 (stereo not drawn) [Compound 629] | –
≤ 100 | ≤ 100 | – | CCOC(=O)Cn1cc(-c2cc([C@H]3CC[C@H](O)CC3)n3nc(N[C@@H](C)COC)ncc23)cn1 [Compound 159] | +++ (“+++” represents a ratio of >100)
≤ 100 | ≤ 100 | +++ (“+++” represents a ratio of >100) | COC[C@H](C)Nc1ncc2c([C@H]3CC[C@H](C(=O)N4CCN(C)CC4)CC3)cc([C@H]3CC[C@H](O)CC3)n2n1 [Compound 606] | –
≤ 100 | ≤ 100 | – | COC[C@H](C)Nc1ncc2c(-c3ccnc(C)c3)cc([C@H]3CC[C@H](O)CC3)n2n1 [Compound 146] | +++ (“+++” represents a ratio of >100)
≤ 100 | ≤ 100 | +++ (“+++” represents a ratio of >100) | COC[C@H](C)Nc1ncc2c(-c3ccnc(N4CCC(C)(O)CC4)c3)cc([C@H]3CC[C@H](O)CC3)n2n1 [Compound 605] | –
≤ 100 | ≤ 100 | +++ (“+++” represents a ratio of >100) | COC[C@H](C)Nc1ncc2c([C@H]3CC[C@@H](C(=O)N4CCN(C)CC4)CC3)cc([C@H]3CC[C@H](O)CC3)n2n1 [Compound 607] | –
≤ 100 | ≤ 100 | +++ (“+++” represents a ratio of >100) | C[C@@H](COC(F)F)Nc1ncc2c(-c3ccnc(N4CCO[C@@H](C(C)(C)O)C4)c3)cc([C@H]3CC[C@H](O)CC3)n2n1 [Compound 597] | –
≤ 100 | ≤ 100 | – | CCCCC[C@H](C)Nc1ncc2c(-c3ccc(S(=O)(=O)N4CCOCC4)cc3)cc([C@H]3CC[C@H](O)CC3)n2n1 [Compound 102, (1S,4r)-4-(2-((S)-heptan-2-ylamino)-5-(4-(morpholinosulfonyl)phenyl)pyrrolo[2,1-f][1,2,4]triazin-7-yl)cyclohexanol] | ++ (“++” represents a ratio of between 10 and 100)
≤ 100 | ≤ 100 | – | COCC(C)Nc1ncc2c(-c3ccc(C(C)N4CCOCC4)cc3)cc(C3CCC(O)CC3)n2n1 (stereo not drawn) [Compound 181] | ++ (“++” represents a ratio of between 10 and 100)

Continued, compound first:

Structure (SMILES) | IC50 [1] [nM] | IC50 [2] [nM] | FLT3/Mer ratio (FLT3 IC50/Mer IC50) [2, 3] | FLT3/Mer ratio (FLT3 IC50/Mer IC50) [2, 4]
COC[C@H](C)Nc1ncc2c(-c3cnn(C(C)(C)c4ncc(C)o4)c3)cc(C3CCC(O)CC3)n2n1 (stereo partly drawn) [Compound 628] | ≤ 100 | ≤ 100 | +++ (“+++” represents a ratio of >100) | –
COC[C@H](C)Nc1ncc2c(C3=CC4CCC(C3)N4)cc([C@H]3CC[C@H](O)CC3)n2n1 (stereo partly drawn) [Compound 170] | ≤ 100 | ≤ 100 | – | +++ (“+++” represents a ratio of >100)
COC[C@H](C)Nc1ncc2c(-c3ccc(CN4CCN(C)CC4)cc3)cc([C@H]3CC[C@@H](O)CC3)n2n1 [Compound 155] | ≤ 100 | ≤ 100 | – | ++ (“++” represents a ratio of between 10 and 100)
COCC(C)Nc1ncc2c(-c3ccc(C4(C(=O)N5CCS(=O)(=O)CC5)CC4)cc3)cc(C3CCC(O)CC3)n2n1 (stereo not drawn) [Compound 172] | ≤ 100 | ≤ 100 | – | ++ (“++” represents a ratio of between 10 and 100)
COC[C@H](C)Nc1ncc2c(-c3ccc([C@H](C)N4CCCC4)cc3)cc([C@H]3CC[C@H](O)CC3)n2n1 [Compound 165] | ≤ 100 | ≤ 100 | – | ++ (“++” represents a ratio of between 10 and 100)
COC[C@H](C)Nc1ncc2c(-c3cnn(C(C)(C)c4nnc(C(C)C)o4)c3)cc([C@H]3CC[C@H](O)CC3)n2n1 [Compound 600] | ≤ 100 | ≤ 100 | +++ (“+++” represents a ratio of >100) | –
COCC(C)Nc1ncc2c(-c3ccc(C(C)N4CCOCC4)cc3)cc(C3CCC(O)CC3)n2n1 (mixture of isomers) [Compound 180] | ≤ 100 | ≤ 100 | – | ++ (“++” represents a ratio of between 10 and 100)
COC[C@H](C)Nc1ncc2c(-c3cnn(CCN4CCOCC4)c3)cc([C@H]3CC[C@H](O)CC3)n2n1 [Compound 153] | ≤ 100 | ≤ 100 | – | +++ (“+++” represents a ratio of >100)
COCC(C)Nc1ncc2c(-c3ccc(C(C)(C)c4nnc(C)o4)s3)cc(C3CCC(O)CC3)n2n1 (stereo not drawn) [Compound 611] | ≤ 100 | ≤ 100 | +++ (“+++” represents a ratio of >100) | –
COC[C@H](C)Nc1ncc2c(-c3ccc(C4(C(=O)N5CCOCC5)CC4)cc3)cc([C@H]3CC[C@H](O)CC3)n2n1 [Compound 171] | ≤ 100 | ≤ 100 | – | ++ (“++” represents a ratio of between 10 and 100)
[2H]C([2H])([2H])OCC(C)Nc1ncc2c(-c3cnn(C4COC4)c3)cc(C3CCC(O)CC3)n2n1 (stereo not drawn) [Compound 630] | ≤ 100 | ≤ 100 | +++ (“+++” represents a ratio of >100) | –
COC[C@H](C)Nc1ncc2c(-c3cnn(C4COC4)c3)cc([C@H]3CC[C@H](O)C(F)(F)C3)n2n1 [Compound 614] | ≤ 100 | ≤ 100 | +++ (“+++” represents a ratio of >100) | –
